The first test relates to σ1 receptor and the μ-opiod receptor. Put plainly: μ and σ1 dual binding: combined class from the Ki of both radioligand assays. Particulars: combined class for Ki-μ and Ki-σ1; transfected HEK-293 membranes (σ1), transfected CHO-K1 cell membranes (μ). Details: species or system human; key to μ and σ1 dual binding: +: Both Ki-μ and Ki-σ1>=500 nM; ++: One Ki<500 nM while the other Ki is >=500 nM; +++: Both Ki-μ and Ki-σ1<500 nM; ++++: Both Ki-μ and Ki-σ1<100 nM. As for the experimental part:
To investigate binding properties of σ1 receptor ligands to human σ1 receptor, transfected HEK-293 membranes and [^3H](+)-pentazocine (Perkin Elmer, NET-1056), as the radioligand, were used. The assay was carried out with 7 μg of membrane suspension, 5 nM of [^3H](+)-pentazocine in either absence or presence of either buffer or 10 μM Haloperidol for total and non-specific binding, respectively. Binding buffer contained Tris-HCl 50 mM at pH 8. Plates were incubated at 37° C. for 120 minutes. After the incubation period, the reaction mix was then transferred to MultiScreen HTS, FC plates (Millipore), filtered and plates were washed 3 times with ice-cold 10 mM Tris-HCL (pH7.4). Filters were dried and counted at approximately 40% efficiency in a MicroBeta scintillation counter (Perkin-Elmer) using EcoScint liquid scintillation cocktail
To investigate binding properties of mu-opioid receptor ligands to human μ-opioid receptor, transfected CHO-K1 cell membranes and [^3H]-DAMGO (Perkin Elmer, ES-542-C), as the radioligand, were used. The assay was carried out with 20 μg of membrane suspension, 1 nM of [^3H]-DAMGO in either absence or presence of either buffer or 10 μM Naloxone for total and non-specific binding, respectively. Binding buffer contained Tris-HCl 50 mM, MgCl2 5 mM at pH 7.4. Plates were incubated at 27° C. for 60 minutes. After the incubation period, the reaction mix was then transferred to MultiScreen HTS, FC plates (Millipore), filtered and plates were washed 3 times with ice-cold 10 mM Tris-HCL (pH 7.4). Filters were dried and counted at approximately 40% efficiency in a MicroBeta scintillation counter (Perkin-Elmer) using EcoScint liquid scintillation cocktail.
The following scale as been adopted for representing the binding to the σ1 receptor and the μ-opiod receptor expressed as Ki: • + Both Ki-μ and Ki-σ1>=500 nM • ++ One Ki<500 nM while the other Ki is >=500 nM • +++ Both Ki-μ and Ki-σ1<500 nM • ++++ Both Ki-μ and Ki-σ1<100 nM
With `CN(c1cccc(C2CCN(Cc3cn(-c4ccccc4)nn3)CC2)c1)S(C)(=O)=O` [Example 31, N-methyl-N-(3-(1-((1-phenyl-1H-1,2,3-triazol-4-yl)methyl)piperidin-4-yl)phenyl)methanesulfonamide], the “μ and σ1 dual binding” value was “++”. Same read-out and setting: with `O=C1Cc2c(cccc2C2CCN(Cc3cn(-c4ccccc4)nn3)CC2)N1` [Example 32, 4-(1-((1-phenyl-1H-1,2,3-triazol-4-yl)methyl)piperidin-4-yl)indolin-2-one] the entry was “++”. Same read-out and setting: with `CN(C)C(=O)Nc1cccc(C2CCN(Cc3cn(-c4ccccc4)nn3)CC2)c1` [Example 38, 1,1-dimethyl-3-(3-(1-((1-phenyl-1H-1,2,3-triazol-4-yl)methyl)piperidin-4-yl)phenyl)urea] the entry was “++”; with `CCN(CC)C(=O)Cn1cc(CN2CCC(c3cccc(O)c3)CC2)nn1` [Example 45, N,N-diethyl-2-(4-((4-(3-hydroxyphenyl)piperidin-1-yl)methyl)-1H-1,2,3-triazol-1-yl)acetamide], “++”.

Still in this test, the particulars now being: transfected HEK-293 membranes (σ1), transfected CHO-K1 cell membranes (μ).
`CS(=O)(=O)Nc1cccc(C2CCN(Cc3cn(-c4ccccc4F)nn3)CC2)c1` [Example 27, N-(3-(1-((1-(2-fluorophenyl)-1H-1,2,3-triazol-4-yl)methyl)piperidin-4-yl)phenyl)methanesulfonamide]: the Ki range for both μ and σ1 (dual-binding class) is under 100 nM. On to `CS(=O)(=O)Nc1cccc(C2CCN(Cc3cn(-c4cccc(F)c4)nn3)CC2)c1` [Example 28, N-(3-(1-((1-(3-fluorophenyl)-1H-1,2,3-triazol-4-yl)methyl)piperidin-4-yl)phenyl)methanesulfonamide], for which the Ki range for both μ and σ1 (dual-binding class) was under 100 nM.

`c1ccc(-n2cc(CN3CCC(c4cccc5[nH]ncc45)CC3)nn2)cc1` [Example 29, 4-(1-((1-phenyl-1H-1,2,3-triazol-4-yl)methyl)piperidin-4-yl)-1H-indazole]: the Ki range for both μ and σ1 (dual-binding class) is under 500 nM. The same measure, in the same setting: the figure for `c1ccc(-n2cc(CN3CCC(c4cccc(-c5ncc[nH]5)c4)CC3)nn2)cc1` [Example 30, 4-(3-(1H-imidazol-2-yl)phenyl)-1-((1-phenyl-1H-1,2,3-triazol-4-yl)methyl)piperidine] is under 500 nM. Regarding `CS(=O)(=O)Nc1cc(C2CCN(Cc3cn(-c4ccccc4)nn3)CC2)ccc1F` [Example 34, N-(2-fluoro-5-(1-((1-phenyl-1H-1,2,3-triazol-4-yl)methyl)piperidin-4-yl)phenyl)methanesulfonamide], the Ki range for both μ and σ1 (dual-binding class) was under 500 nM.

Take `CS(=O)(=O)Nc1cc(F)cc(C2CCN(Cc3cn(-c4ccccc4)nn3)CC2)c1` [Example 35, N-(3-fluoro-5-(1-((1-phenyl-1H-1,2,3-triazol-4-yl)methyl)piperidin-4-yl)phenyl)methanesulfonamide]: the Ki range for both μ and σ1 (dual-binding class) was under 100 nM. The same measure, in the same setting: with `Oc1cccc(C2CCN(Cc3cn(-c4ccc(F)cc4)nn3)CC2)c1` [Example 36, 3-(1-((1-(4-fluorophenyl)-1H-1,2,3-triazol-4-yl)methyl)piperidin-4-yl)phenol] the figure was under 100 nM; with `CS(=O)(=O)Nc1cccc(C2CCN(Cc3cn(Cc4ccccc4)nn3)CC2)c1` [Example 37, N-(3-(1-((1-benzyl-1H-1,2,3-triazol-4-yl)methyl)piperidin-4-yl)phenyl)methanesulfonamide], under 500 nM. Still for that read-out and setting: the figure for `CC(=O)Nc1cc(F)cc(C2CCN(Cc3cn(-c4ccccc4)nn3)CC2)c1` [Example 39, N-(3-fluoro-5-(1-((1-phenyl-1H-1,2,3-triazol-4-yl)methyl)piperidin-4-yl)phenyl)acetamide] is under 500 nM; for `Oc1cccc(C2CCN(Cc3cn(-c4ccc(Cl)c(Cl)c4)nn3)CC2)c1` [Example 40, 3-(1-((1-(3,4-dichlorophenyl)-1H-1,2,3-triazol-4-yl)methyl)piperidin-4-yl)phenol] it is under 100 nM; for `Oc1cccc(C2CCN(Cc3cn(-c4ccc(Cl)cc4Cl)nn3)CC2)c1` [Example 41, 3-(1-((1-(2,4-dichlorophenyl)-1H-1,2,3-triazol-4-yl)methyl)piperidin-4-yl)phenol] it is under 100 nM. Same read-out and setting: the figure for `Cc1nnc(-c2cccc(C3CCN(Cc4cn(-c5ccccc5)nn4)CC3)c2)o1` [Example 42, 2-methyl-5-(3-(1-((1-phenyl-1H-1,2,3-triazol-4-yl)methyl)piperidin-4-yl)phenyl)-1,3,4-oxadiazole] is under 500 nM; for `N#Cc1ccc(Cn2cc(CN3CCC(c4cccc(O)c4)CC3)nn2)cc1` [Example 43, 4-((4-((4-(3-hydroxyphenyl)piperidin-1-yl)methyl)-1H-1,2,3-triazol-1-yl)methyl)benzonitrile] it is under 100 nM; for `COc1cccc(-n2cc(CN3CCC(c4cccc(O)c4)CC3)nn2)c1` [Example 44, 3-(1-((1-(3-methoxyphenyl)-1H-1,2,3-triazol-4-yl)methyl)piperidin-4-yl)phenol] it is under 100 nM. As to `Oc1cccc(C2CCN(Cc3cn(C4CCc5ccccc54)nn3)CC2)c1` (stereo not drawn) [Example 46, 3-(1-((1-(2,3-dihydro-1H-inden-1-yl)-1H-1,2,3-triazol-4-yl)methyl)piperidin-4-yl)phenol], the Ki range for both μ and σ1 (dual-binding class) is under 100 nM. On the same count and under the same terms, with `CS(=O)(=O)c1cccc(C2CCN(Cc3cn(-c4ccccc4)nn3)CC2)c1` [Example 47, 4-(3-(methylsulfonyl)phenyl)-1-((1-phenyl-1H-1,2,3-triazol-4-yl)methyl)piperidine] the figure was under 500 nM.

Consider `CS(=O)(=O)Nc1cccc(C2CCN(Cc3cn(C4CCc5ccccc54)nn3)CC2)c1` (stereo not drawn) [Example 48, N-(3-(1-((1-(2,3-dihydro-1H-inden-1-yl)-1H-1,2,3-triazol-4-yl)methyl)piperidin-4-yl)phenyl)methanesulfonamide], for which the Ki range for both μ and σ1 (dual-binding class) is under 500 nM. For `CC(=O)Nc1nc2c(C3CCN(Cc4cn(-c5ccccc5)nn4)CC3)cccc2s1` [Example 49, N-(4-(1-((1-Phenyl-1H-1,2,3-triazol-4-yl)methyl)piperidin-4-yl)benzo[d]thiazol-2-yl)acetamide], the Ki range for both μ and σ1 (dual-binding class) is under 100 nM. On the same count and under the same terms, with `Nc1nc2c(C3CCN(Cc4cn(-c5ccccc5)nn4)CC3)cccc2s1` [Example 50, 4-(1-((1-phenyl-1H-1,2,3-triazol-4-yl)methyl)piperidin-4-yl)benzo[d]thiazol-2-amine] the figure was under 100 nM.

With `CC(C)NC(=O)c1cccc(C2CCN(Cc3cn(Cc4ccccc4)nn3)CC2)c1` [Example 51, 3-(1-((1-benzyl-1H-1,2,3-triazol-4-yl)methyl)piperidin-4-yl)-N-isopropylbenzamide], the Ki range for both μ and σ1 (dual-binding class) was at least 500 nM. For `Cc1ccc(C2CCN(Cc3cn(-c4ccccc4)nn3)CC2)cc1O` [Example 52, 2-methyl-5-(1-((1-phenyl-1H-1,2,3-triazol-4-yl)methyl)piperidin-4-yl)phenol], the Ki range for both μ and σ1 (dual-binding class) is under 100 nM. As to `CS(=O)(=O)Nc1cccc(C2CCN(Cc3cn(-c4ccccc4)nn3)CC2)c1F` [Example 53, N-(2-fluoro-3-(1-((1-phenyl-1H-1,2,3-triazol-4-yl)methy)piperidin-4-yl)phenyl)methanesulfonamide], the Ki range for both μ and σ1 (dual-binding class) was under 100 nM. Same read-out and setting: with `Oc1cccc(C2CCN(Cc3cn(Cc4ccncc4)nn3)CC2)c1` [Example 54, 3-(1-((1-(pyridin-4-ylmethyl)-1H-1,2,3-triazol-4-yl)methyl)piperidin-4-yl)phenol] the figure was under 500 nM.

As for `Oc1cccc(C2CCN(Cc3cn(Cc4ccccn4)nn3)CC2)c1` [Example 55, 3-(1-((1-(pyridin-2-ylmethyl)-1H-1,2,3-triazol-4-yl)methyl)piperidin-4-yl)phenol], the Ki range for both μ and σ1 (dual-binding class) is under 500 nM. Still for that read-out and setting: with `CCNC(=O)Nc1cccc(C2CCN(Cc3cn(-c4ccccc4)nn3)CC2)c1` [Example 56, 1-ethyl-3-(3-(1-((1-phenyl-1H-1,2,3-triazol-4-yl)methyl)piperidin-4-yl)phenyl)urea] the figure was under 500 nM; with `CS(=O)(=O)Nc1cccc(C2CCN(Cc3cn(Cc4ccc(C(F)(F)F)cc4)nn3)CC2)c1` [Example 57, N-(3-(1-((1-(4-(trifluoromethyl)benzyl)-1H-1,2,3-triazol-4-yl)methyl)piperidin-4-yl)phenyl)methanesulfonamide], under 500 nM.

These data come from patent US9981942B2, “Piperidine derivatives having multimodal activity against pain” (LABORATORIOS DEL DR. ESTEVE S.A., priority 2013, dated 2018).
